Results as given in PubChem BioAssay AID1259407 (Chemical Carcinogenesis Research Information System (CCRIS), 2018).
Calls of active or inactive are those of the source. No rule for the calls is given here.

Test system: CCRIS mutagenicity, Ames/micronucleus/aberration tests
Test: CCRIS mutagenicity studies

SMILES: CCCCNC(=O)n1c(NC(=O)OC)nc2ccccc21
- mutagenic call (End Point: IN VIVO CHROMOSOMAL ABERRATIONS, Test System: BONE MARROW CELLS, Species: MOUSE, Strain/Sex: SWISS/MALE, Route: DIET (ORAL)): active; positive at all dose levels (structural and ploidy changes, robertsonian translo
- mutagenic call (Test System: AMES SALMONELLA TYPHIMURIUM, Strain/Indicator: TA97, Metabolic Activation: HAMSTER, LIVER, S-9, AROCLOR 1254 (10%), Method: PREINCUBATION): inactive; negative
- mutagenic call (Test System: AMES SALMONELLA TYPHIMURIUM, Strain/Indicator: TA97, Metabolic Activation: HAMSTER, LIVER, S-9, AROCLOR 1254 (30%), Method: PREINCUBATION): inactive; negative
- mutagenic call (Test System: AMES SALMONELLA TYPHIMURIUM, Strain/Indicator: TA97, Metabolic Activation: NONE, Method: PREINCUBATION): inactive; negative
- mutagenic call (Test System: AMES SALMONELLA TYPHIMURIUM, Strain/Indicator: TA97, Metabolic Activation: RAT, LIVER, S-9, AROCLOR 1254 (10%), Method: PREINCUBATION): inactive; negative
- mutagenic call (Test System: AMES SALMONELLA TYPHIMURIUM, Strain/Indicator: TA97, Metabolic Activation: RAT, LIVER, S-9, AROCLOR 1254 (30%), Method: PREINCUBATION): inactive; negative
- mutagenic call (Test System: AMES SALMONELLA TYPHIMURIUM, Strain/Indicator: TA97A, Metabolic Activation: NONE, Method: STANDARD PLATE): inactive; negative
- mutagenic call (Test System: AMES SALMONELLA TYPHIMURIUM, Strain/Indicator: TA97A, Metabolic Activation: PLANT, HOMOGENATE, S-14, Method: STANDARD PLATE): inactive; negative
- mutagenic call (Test System: AMES SALMONELLA TYPHIMURIUM, Strain/Indicator: TA97A, Metabolic Activation: S-9, Method: STANDARD PLATE): inactive; negative
- mutagenic call (Test System: AMES SALMONELLA TYPHIMURIUM, Strain/Indicator: TA98, Metabolic Activation: HAMSTER, LIVER, S-9, 1254 (10%), Method: PREINCUBATION): inactive; negative
- mutagenic call (Test System: AMES SALMONELLA TYPHIMURIUM, Strain/Indicator: TA98, Metabolic Activation: HAMSTER, LIVER, S-9, AROCLOR 1254 (30%), Method: PREINCUBATION): inactive; negative
- mutagenic call (Test System: AMES SALMONELLA TYPHIMURIUM, Strain/Indicator: TA98, Metabolic Activation: NONE, Method: PREINCUBATION): inactive; negative
- mutagenic call (Test System: AMES SALMONELLA TYPHIMURIUM, Strain/Indicator: TA98, Metabolic Activation: PLANT, HOMOGENATE, S-14, Method: STANDARD PLATE): inactive; negative
- mutagenic call (Test System: AMES SALMONELLA TYPHIMURIUM, Strain/Indicator: TA98, Metabolic Activation: RAT, LIVER, S-9, AROCLOR 1254 (10%), Method: PREINCUBATION): inactive; negative
- mutagenic call (Test System: AMES SALMONELLA TYPHIMURIUM, Strain/Indicator: TA98, Metabolic Activation: RAT, LIVER, S-9, AROCLOR 1254 (30%), Method: PREINCUBATION): inactive; negative
- mutagenic call (Test System: AMES SALMONELLA TYPHIMURIUM, Strain/Indicator: TA98, Metabolic Activation: RAT, LIVER, S-9, AROCLOR 1254, Method: STANDARD PLATE): inactive; negative
- mutagenic call (Test System: AMES SALMONELLA TYPHIMURIUM, Strain/Indicator: TA98, Metabolic Activation: RAT, LIVER, S-9, AROCLOR, Method: STANDARD PLATE): inactive; negative
- mutagenic call (Test System: AMES SALMONELLA TYPHIMURIUM, Strain/Indicator: TA98, Metabolic Activation: S-9, Method: STANDARD PLATE): inactive; negative
- mutagenic call (Test System: AMES SALMONELLA TYPHIMURIUM, Strain/Indicator: TA100, Metabolic Activation: HAMSTER, LIVER, S-9, AROCLOR 1254 (10%), Method: PREINCUBATION): inactive; negative
- mutagenic call (Test System: AMES SALMONELLA TYPHIMURIUM, Strain/Indicator: TA100, Metabolic Activation: HAMSTER, LIVER, S-9, AROCLOR 1254 (30%), Method: PREINCUBATION): inactive; negative
- mutagenic call (Test System: AMES SALMONELLA TYPHIMURIUM, Strain/Indicator: TA100, Metabolic Activation: NONE, Method: PREINCUBATION): inactive; negative
- mutagenic call (Test System: AMES SALMONELLA TYPHIMURIUM, Strain/Indicator: TA100, Metabolic Activation: PLANT, HOMOGENATE, S-14, Method: STANDARD PLATE): inactive; negative
- mutagenic call (Test System: AMES SALMONELLA TYPHIMURIUM, Strain/Indicator: TA100, Metabolic Activation: RAT, LIVER, S-9, AROCLOR 1254 (10%), Method: PREINCUBATION): inactive; negative
- mutagenic call (Test System: AMES SALMONELLA TYPHIMURIUM, Strain/Indicator: TA100, Metabolic Activation: RAT, LIVER, S-9, AROCLOR 1254 (30%), Method: PREINCUBATION): inactive; negative
- mutagenic call (Test System: AMES SALMONELLA TYPHIMURIUM, Strain/Indicator: TA100, Metabolic Activation: RAT, LIVER, S-9, AROCLOR 1254, Method: STANDARD PLATE): inactive; negative
- mutagenic call (Test System: AMES SALMONELLA TYPHIMURIUM, Strain/Indicator: TA100, Metabolic Activation: RAT, LIVER, S-9, AROCLOR, Method: STANDARD PLATE): inactive; negative
- mutagenic call (Test System: AMES SALMONELLA TYPHIMURIUM, Strain/Indicator: TA100, Metabolic Activation: S-9, Method: STANDARD PLATE): inactive; negative
- mutagenic call (Test System: AMES SALMONELLA TYPHIMURIUM, Strain/Indicator: TA1535, Metabolic Activation: HAMSTER, LIVER, S-9, AROCLOR 1254 (10%), Method: PREINCUBATION): inactive; negative
- mutagenic call (Test System: AMES SALMONELLA TYPHIMURIUM, Strain/Indicator: TA1535, Metabolic Activation: HAMSTER, LIVER, S-9, AROCLOR 1254 (30%), Method: PREINCUBATION): inactive; negative
- mutagenic call (Test System: AMES SALMONELLA TYPHIMURIUM, Strain/Indicator: TA1535, Metabolic Activation: NONE, Method: PREINCUBATION): inactive; negative
- mutagenic call (Test System: AMES SALMONELLA TYPHIMURIUM, Strain/Indicator: TA1535, Metabolic Activation: PLANT, HOMOGENATE, S-14, Method: STANDARD PLATE): inactive; negative
- mutagenic call (Test System: AMES SALMONELLA TYPHIMURIUM, Strain/Indicator: TA1535, Metabolic Activation: RAT, LIVER, S-9, AROCLOR 1254 (10%), Method: PREINCUBATION): inactive; negative
- mutagenic call (Test System: AMES SALMONELLA TYPHIMURIUM, Strain/Indicator: TA1535, Metabolic Activation: RAT, LIVER, S-9, AROCLOR 1254 (30%), Method: PREINCUBATION): inactive; negative
- mutagenic call (Test System: AMES SALMONELLA TYPHIMURIUM, Strain/Indicator: TA1535, Metabolic Activation: RAT, LIVER, S-9, AROCLOR 1254, Method: STANDARD PLATE): inactive; negative
- mutagenic call (Test System: AMES SALMONELLA TYPHIMURIUM, Strain/Indicator: TA1535, Metabolic Activation: RAT, LIVER, S-9, AROCLOR, Method: STANDARD PLATE): inactive; negative
- mutagenic call (Test System: AMES SALMONELLA TYPHIMURIUM, Strain/Indicator: TA1535, Metabolic Activation: S-9, Method: STANDARD PLATE): inactive; negative
- mutagenic call (Test System: AMES SALMONELLA TYPHIMURIUM, Strain/Indicator: TA1537, Metabolic Activation: HAMSTER, LIVER, S-9, AROCLOR 1254 (10%), Method: PREINCUBATION): inactive; negative
- mutagenic call (Test System: AMES SALMONELLA TYPHIMURIUM, Strain/Indicator: TA1537, Metabolic Activation: HAMSTER, LIVER, S-9, AROCLOR 1254 (30%), Method: PREINCUBATION): inactive; negative
- mutagenic call (Test System: AMES SALMONELLA TYPHIMURIUM, Strain/Indicator: TA1537, Metabolic Activation: NONE, Method: PREINCUBATION): inactive; negative
- mutagenic call (Test System: AMES SALMONELLA TYPHIMURIUM, Strain/Indicator: TA1537, Metabolic Activation: NONE, Method: STANDARD PLATE): inactive; negative
- mutagenic call (Test System: AMES SALMONELLA TYPHIMURIUM, Strain/Indicator: TA1537, Metabolic Activation: RAT, LIVER, S-9, AROCLOR 1254 (10%), Method: PREINCUBATION): inactive; negative
- mutagenic call (Test System: AMES SALMONELLA TYPHIMURIUM, Strain/Indicator: TA1537, Metabolic Activation: RAT, LIVER, S-9, AROCLOR 1254 (30%), Method: PREINCUBATION): inactive; negative
- mutagenic call (Test System: AMES SALMONELLA TYPHIMURIUM, Strain/Indicator: TA1537, Metabolic Activation: RAT, LIVER, S-9, AROCLOR 1254, Method: STANDARD PLATE): inactive; negative
- mutagenic call (Test System: AMES SALMONELLA TYPHIMURIUM, Strain/Indicator: TA1537, Metabolic Activation: RAT, LIVER, S-9, AROCLOR, Method: STANDARD PLATE): inactive; negative
- mutagenic call (Test System: E. COLI, Strain/Indicator: WP2 UVRA, Metabolic Activation: NONE, Method: FLUCTUATION): active; positive

SMILES: C[C@]12CC[C@@H]3c4ccc(O)c(O)c4CC[C@H]3[C@@H]1CC[C@@H]2O
- mutagenic call (Test System: Ames Salmonella Typhimurium, Strain/Indicator: TA98, Metabolic Activation: None, Method: Standard plate): inactive; negative
- mutagenic call (Test System: Ames Salmonella Typhimurium, Strain/Indicator: TA98, Metabolic Activation: Rat, liver, S-9 (0.5 ml), Method: Standard plate): inactive; negative
- mutagenic call (Test System: Ames Salmonella Typhimurium, Strain/Indicator: TA100, Metabolic Activation: None, Method: Standard plate): inactive; negative
- mutagenic call (Test System: Ames Salmonella typhimurium, Strain/Indicator: TA100, Metabolic Activation: Rat, liver, S-9, Method: Standard plate): inactive; negative
